Molecular target: T1, PLK1 (Homo sapiens, UniProt P53350)
T1 construct: endogenous in cells; host or cells: HeLa
Assay: PLK1 protein degradation in HeLa cells, Western blotting (PLK1/GAPDH ratio)
Type: cell-based
Conditions: 6 hours compound incubation; for DC50: measured only if the grade of Dmax is A or B; for Dmax: thymidine block and release, 10 points three-fold from 3 μM, PLK1 to GAPDH ratio, read-out: Dmax
Method in brief: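 Thymidine-synchronised HeLa cells (2 mM, 24 h) released 4 h into complete medium, then treated 6 h with compound in 10-point 3-fold dilutions from 3 μM. RIPA lysates (15 μg protein) run on SDS-PAGE; PLK1 Western blot normalised to GAPDH.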

T1 sequence (P53350 whole entry): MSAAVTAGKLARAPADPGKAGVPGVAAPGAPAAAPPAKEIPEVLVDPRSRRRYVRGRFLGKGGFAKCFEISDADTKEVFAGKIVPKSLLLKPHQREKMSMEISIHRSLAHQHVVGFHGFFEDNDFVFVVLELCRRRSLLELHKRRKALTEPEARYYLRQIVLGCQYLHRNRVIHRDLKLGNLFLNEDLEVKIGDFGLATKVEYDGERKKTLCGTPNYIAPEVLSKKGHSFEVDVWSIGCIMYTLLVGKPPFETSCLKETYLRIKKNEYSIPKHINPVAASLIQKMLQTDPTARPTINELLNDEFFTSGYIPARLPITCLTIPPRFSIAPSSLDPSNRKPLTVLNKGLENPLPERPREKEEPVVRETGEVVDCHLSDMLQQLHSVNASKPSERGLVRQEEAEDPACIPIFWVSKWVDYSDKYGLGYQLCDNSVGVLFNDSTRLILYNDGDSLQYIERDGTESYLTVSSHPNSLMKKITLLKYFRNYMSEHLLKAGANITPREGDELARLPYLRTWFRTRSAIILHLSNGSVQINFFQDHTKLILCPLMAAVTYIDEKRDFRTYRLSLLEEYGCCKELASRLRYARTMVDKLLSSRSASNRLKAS

| DC50 [nM] | Dmax [%] | Structure (SMILES) |
| --- | --- | --- |
| ≤ 500 | 60 to 80 | CN1C(=O)C(F)(F)CN(C2CCCC2)c2nc(Nc3cc(F)c(C(=O)NC4CCN(CCOCCOCCNc5cccc6c5C(=O)N(C5CCC(=O)NC5=O)C6=O)CC4)cc3OC(F)(F)F)ncc21 (stereo not shown) [Example 99, 4-((9-cyclopentyl-7,7-difluoro-5-methyl-6-oxo-6,7,8,9-tetrahydro-5H-pyrimido[4,5-b][1,4]diazepin-2-yl)amino)-N-(1-(2-(2-(2-((2-(2,6-dioxopiperidin-3-yl)-1,3-dioxoisoindolin-4-yl)amino)ethoxy)ethoxy)ethyl)piperidin-4-yl)-2-fluoro-5-(trifluoromethoxy)benzamide] |
| ≤ 50 | ≥ 80 | CN1C(=O)C(F)(F)CN(C2CCCC2)c2nc(Nc3ccc(C(=O)NC4CCN(C(=O)CCCNc5cccc6c5C(=O)N(C5CCC(=O)NC5=O)C6=O)CC4)cc3)ncc21 (stereo not shown) [Example 102, 4-((9-cyclopentyl-7,7-difluoro-5-methyl-6-oxo-6,7,8,9-tetrahydro-5H-pyrimido[4,5-b][1,4]diazepin-2-yl)amino)-N-(1-(4-((2-(2,6-dioxopiperidin-3-yl)-1,3-dioxoisoindolin-4-yl)amino)butanoyl)piperidin-4-yl)benzamide] |
| ≤ 50 | ≥ 80 | COc1cc(C(=O)N[C@H]2CC[C@H](N3CCN(CCOCCNc4cccc5c4C(=O)N(C4CCC(=O)NC4=O)C5=O)CC3)CC2)c(F)cc1Nc1ncc2c(n1)N(C1CCCC1)CC(F)(F)C(=O)N2C (stereo partly shown) [Example 103, 4-((9-cyclopentyl-7,7-difluoro-5-methyl-6-oxo-6,7,8,9-tetrahydro-5H-pyrimido[4,5-b][1,4]diazepin-2-yl)amino)-N-((1r,4r)-4-(4-(2-(2-((2-(2,6-dioxopiperidin-3-yl)-1,3-dioxoisoindolin-4-yl)amino)ethoxy)ethyl)piperazin-1-yl)cyclohexyl)-2-fluoro-5-methoxybenzamide] |
| ≤ 50 | ≥ 80 | COc1cc(C(=O)NC2CCCN(CCOCCOCCNc3cccc4c3C(=O)N(C3CCC(=O)NC3=O)C4=O)C2)c(F)cc1Nc1ncc2c(n1)N(C1CCCC1)CC(F)(F)C(=O)N2C (stereo not shown) [Example 104, 4-((9-cyclopentyl-7,7-difluoro-5-methyl-6-oxo-6,7,8,9-tetrahydro-5H-pyrimido[4,5-b][1,4]diazepin-2-yl)amino)-N-(1-(2-(2-(2-((2-(2,6-dioxopiperidin-3-yl)-1,3-dioxoisoindolin-4-yl)amino)ethoxy)ethoxy)ethyl)piperidin-3-yl)-2-fluoro-5-methoxybenzamide] |
| ≤ 500 | 60 to 80 | COc1cc(C(=O)NC2CCCN(CCOCCNc3cccc4c3C(=O)N(C3CCC(=O)NC3=O)C4=O)C2)c(F)cc1Nc1ncc2c(n1)N(C1CCCC1)CC(F)(F)C(=O)N2C (stereo not shown) [Example 105, 4-((9-cyclopentyl-7,7-difluoro-5-methyl-6-oxo-6,7,8,9-tetrahydro-5H-pyrimido[4,5-b][1,4]diazepin-2-yl)amino)-N-(1-(2-(2-((2-(2,6-dioxopiperidin-3-yl)-1,3-dioxoisoindolin-4-yl)amino)ethoxy)ethyl)piperidin-3-yl)-2-fluoro-5-methoxybenzamide] |
| ≤ 50 | ≥ 80 | COc1cc(C(=O)NC2CCN(CCOCCOCCNc3cccc4c3C(=O)N(C3CCC(=O)NC3=O)C4=O)C2)c(F)cc1Nc1ncc2c(n1)N(C1CCCC1)CC(F)(F)C(=O)N2C (stereo not shown) [Example 107, 4-((9-cyclopentyl-7,7-difluoro-5-methyl-6-oxo-6,7,8,9-tetrahydro-5H-pyrimido[4,5-b][1,4]diazepin-2-yl)amino)-N-(1-(2-(2-(2-((2-(2,6-dioxopiperidin-3-yl)-1,3-dioxoisoindolin-4-yl)amino)ethoxy)ethoxy)ethyl)pyrrolidin-3-yl)-2-fluoro-5-methoxybenzamide] |

Continued, compound first:

| Structure (SMILES) | DC50 [nM] | Dmax [%] |
| --- | --- | --- |
| CN1C(=O)C(F)(F)CN(C2CCCC2)c2nc(Nc3cc(F)c(C(=O)NC4CCN(CCOCCOCCNc5cccc6c5C(=O)N(C5CCC(=O)NC5=O)C6=O)CC4)cc3OC3CCC3)ncc21 (stereo not shown) [Example 93, 5-cyclobutoxy-4-((9-cyclopentyl-7,7-difluoro-5-methyl-6-oxo-6,7,8,9-tetrahydro-5H-pyrimido[4,5-b][1,4]diazepin-2-yl)amino)-N-(1-(2-(2-(2-((2-(2,6-dioxopiperidin-3-yl)-1,3-dioxoisoindolin-4-yl)amino)ethoxy)ethoxy)ethyl)piperidin-4-yl)-2-fluorobenzamide] | ≤ 50 | ≥ 80 |
| CCC(C)Oc1cc(C(=O)NC2CCN(CCOCCOCCNc3cccc4c3C(=O)N(C3CCC(=O)NC3=O)C4=O)CC2)c(F)cc1Nc1ncc2c(n1)N(C1CCCC1)CC(F)(F)C(=O)N2C (stereo not shown) [Example 94, 5-(sec-butoxy)-4-((9-cyclopentyl-7,7-difluoro-5-methyl-6-oxo-6,7,8,9-tetrahydro-5H-pyrimido[4,5-b][1,4]diazepin-2-yl)amino)-N-(1-(2-(2-(2-((2-(2,6-dioxopiperidin-3-yl)-1,3-dioxoisoindolin-4-yl)amino)ethoxy)ethoxy)ethyl)piperidin-4-yl)-2-fluorobenzamide] | > 500 | 60 to 80 |
| CN1C(=O)C(F)(F)CN(C2CCCC2)c2nc(Nc3cc(F)c(C(=O)NC4CCN(CCOCCOCCNc5cccc6c5C(=O)N(C5CCC(=O)NC5=O)C6=O)CC4)cc3OC3CCCC3)ncc21 (stereo not shown) [Example 95, 4-((9-cyclopentyl-7,7-difluoro-5-methyl-6-oxo-6,7,8,9-tetrahydro-5H-pyrimido[4,5-b][1,4]diazepin-2-yl)amino)-5-(cyclopentyloxy)-N-(1-(2-(2-(2-((2-(2,6-dioxopiperidin-3-yl)-1,3-dioxoisoindolin-4-yl)amino)ethoxy)ethoxy)ethyl)piperidin-4-yl)-2-fluorobenzamide] | > 500 | 60 to 80 |
| COc1cc(C(=O)NC2CCN(CCOCCOCCNc3cccc4c3C(=O)N(C3CCC(=O)NC3=O)C4=O)CC2)ccc1Nc1ncc2c(n1)N(C1CCCC1)CC(F)(F)C(=O)N2C (stereo not shown) [Example 96, 4-((9-cyclopentyl-7,7-difluoro-5-methyl-6-oxo-6,7,8,9-tetrahydro-5H-pyrimido[4,5-b][1,4]diazepin-2-yl)amino)-N-(1-(2-(2-(2-((2-(2,6-dioxopiperidin-3-yl)-1,3-dioxoisoindolin-4-yl)amino)ethoxy)ethoxy)ethyl)piperidin-4-yl)-3-methoxybenzamide] | ≤ 50 | ≥ 80 |
| CN1C(=O)C(F)(F)CN(C2CCCC2)c2nc(Nc3cc(F)c(C(=O)NC4CCN(CCOCCOCCNc5cccc6c5C(=O)N(C5CCC(=O)NC5=O)C6=O)CC4)cc3OCCO)ncc21 (stereo not shown) [Example 97, 4-((9-cyclopentyl-7,7-difluoro-5-methyl-6-oxo-6,7,8,9-tetrahydro-5H-pyrimido[4,5-b][1,4]diazepin-2-yl)amino)-N-(1-(2-(2-(2-((2-(2,6-dioxopiperidin-3-yl)-1,3-dioxoisoindolin-4-yl)amino)ethoxy)ethoxy)ethyl)piperidin-4-yl)-2-fluoro-5-(2-hydroxyethoxy)benzamide] |  | < 60 |
| CN1C(=O)C(F)(F)CN(C2CCCC2)c2nc(Nc3ccc(C(=O)NC4CCN(CCOCCOCCNc5cccc6c5C(=O)N(C5CCC(=O)NC5=O)C6=O)CC4)cc3OCCO)ncc21 (stereo not shown) [Example 98, 4-((9-cyclopentyl-7,7-difluoro-5-methyl-6-oxo-6,7,8,9-tetrahydro-5H-pyrimido[4,5-b][1,4]diazepin-2-yl)amino)-N-(1-(2-(2-(2-((2-(2,6-dioxopiperidin-3-yl)-1,3-dioxoisoindolin-4-yl)amino)ethoxy)ethoxy)ethyl)piperidin-4-yl)-3-(2-hydroxyethoxy)benzamide] | ≤ 500 | 60 to 80 |
| COc1cc(C(=O)NC2CCN(CCOCCOCCNc3cccc4c3C(=O)N(C3CCC(=O)NC3=O)C4=O)CC2)c(F)cc1Nc1ncc2c(n1)N(C(C)C)CC(F)(F)C(=O)N2C (stereo not shown) [Example 100, 4-((7,7-difluoro-9-isopropyl-5-methyl-6-oxo-6,7,8,9-tetrahydro-5H-pyrimido[4,5-b][1,4]diazepin-2-yl)amino)-N-(1-(2-(2-(2-((2-(2,6-dioxopiperidin-3-yl)-1,3-dioxoisoindolin-4-yl)amino)ethoxy)ethoxy)ethyl)piperidin-4-yl)-2-fluoro-5-methoxybenzamide] | ≤ 500 | 60 to 80 |
| COc1cc(C(=O)NC2CCN(CCOCCOCCOCCOCCNc3cccc4c3C(=O)N(C3CCC(=O)NC3=O)C4=O)CC2)c(F)cc1Nc1ncc2c(n1)N(C(C)C)CC(F)(F)C(=O)N2C (stereo not shown) [Example 101, 4-((7,7-difluoro-9-isopropyl-5-methyl-6-oxo-6,7,8,9-tetrahydro-5H-pyrimido[4,5-b][1,4]diazepin-2-yl)amino)-N-(1-(14-((2-(2,6-dioxopiperidin-3-yl)-1,3-dioxoisoindolin-4-yl)amino)-3,6,9,12-tetraoxatetradecyl)piperidin-4-yl)-2-fluoro-5-methoxybenzamide] | ≤ 50 | ≥ 80 |
| COc1cc(C(=O)NC2CCN(CCOCCNc3cccc4c3C(=O)N(C3CCC(=O)NC3=O)C4=O)C2)c(F)cc1Nc1ncc2c(n1)N(C1CCCC1)CC(F)(F)C(=O)N2C (stereo not shown) [Example 106, 4-((9-cyclopentyl-7,7-difluoro-5-methyl-6-oxo-6,7,8,9-tetrahydro-5H-pyrimido[4,5-b][1,4]diazepin-2-yl)amino)-N-(1-(2-(2-((2-(2,6-dioxopiperidin-3-yl)-1,3-dioxoisoindolin-4-yl)amino)ethoxy)ethyl)pyrrolidin-3-yl)-2-fluoro-5-methoxybenzamide] | ≤ 500 | 60 to 80 |
| COc1cc(C(=O)NC2CCN(CCOCCOCCOCCOCCNc3cccc4c3C(=O)N(C3CCC(=O)NC3=O)C4=O)C2)c(F)cc1Nc1ncc2c(n1)N(C1CCCC1)CC(F)(F)C(=O)N2C (stereo not shown) [Example 108, 4-((9-cyclopentyl-7,7-difluoro-5-methyl-6-oxo-6,7,8,9-tetrahydro-5H-pyrimido[4,5-b][1,4]diazepin-2-yl)amino)-N-(1-(14-((2-(2,6-dioxopiperidin-3-yl)-1,3-dioxoisoindolin-4-yl)amino)-3,6,9,12-tetraoxatetradecyl)pyrrolidin-3-yl)-2-fluoro-5-methoxybenzamide] | ≤ 50 | ≥ 80 |

Reference: patent US20230372498A1, “PLK1 SELECTIVE DEGRADATION INDUCING COMPOUND” (UPPTHERA, priority 2020, published 2023)
